Assay results: the Kinase Knowledgebase extract (Sharma et al. 2016)

Target: MAPK14 (human) (UniProt Q16539)
Test: Inhibition of MAPK14 Kinase Activity

MAPK14 (human), sequence (Q16539 whole entry, looked up): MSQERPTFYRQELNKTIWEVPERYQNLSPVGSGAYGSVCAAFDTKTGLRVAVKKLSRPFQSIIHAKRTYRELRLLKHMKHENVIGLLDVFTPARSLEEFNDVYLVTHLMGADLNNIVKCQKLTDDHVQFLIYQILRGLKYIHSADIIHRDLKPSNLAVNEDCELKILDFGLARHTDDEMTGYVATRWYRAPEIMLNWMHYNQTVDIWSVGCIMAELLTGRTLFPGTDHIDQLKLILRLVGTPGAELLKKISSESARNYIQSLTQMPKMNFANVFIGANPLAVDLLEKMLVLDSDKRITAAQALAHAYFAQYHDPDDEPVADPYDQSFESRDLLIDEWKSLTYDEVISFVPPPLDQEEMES

Compound	IC50 [µM]
CN(C)C(=O)c1sc2c(ccc(=O)n2-c2ccccc2)c1C(=O)c1ccccc1	< 2
NC(=O)c1sc2c(ccc(=O)n2-c2ccccc2)c1C(=O)c1ccc(F)c(Cl)c1	< 2
Cc1cccc(C(=O)c2c(C(=O)N3CCC3)sc3c2ccc(=O)n3-c2ccccc2)c1	< 2
O=C(c1ccccc1)c1c(NCC2CNC2)sc2c1ccc(=O)n2-c1ccccc1	< 2
Cc1cc(C(=O)c2c(NC(=O)C3CCNCC3)sc3c2ccc(=O)n3-c2ccccc2)ccc1F	< 2
Nc1sc2c(ccc(=O)n2-c2ccccc2)c1C(=O)c1cccc(Br)c1	< 2
CN1CCC[C@@H]1C(=O)Nc1sc2c(ccc(=O)n2-c2ccccc2)c1C(=O)c1ccccc1	< 2
O=C(c1ccccc1)c1c(NC2CCNCC2)sc2c1ccc(=O)n2-c1ccccc1	< 2
Cc1cc(C(=O)c2c(N)sc3c2ccc(=O)n3-c2ccccc2F)ccc1F	< 2
CC(=O)Nc1sc2c(ccc(=O)n2-c2ccccc2)c1C(=O)c1cccc(F)c1	< 2
Cc1cccc(C(=O)c2c(N)sc3c2ccc(=O)n3-c2ccccc2F)c1	< 2
O=C(c1ccccc1)c1c(NCCN2CCCC2)sc2c1ccc(=O)n2-c1ccccc1	< 2
CN(C)c1sc2c(ccc(=O)n2-c2ccccc2)c1C(=O)c1ccccc1	< 2
O=C(c1ccccc1)c1csc2c1ccc(=O)n2-c1ccccc1	< 2
Nc1sc2c(ccc(=O)n2-c2ccccc2)c1C(=O)c1ccccc1	< 2
Cc1cccc(C(=O)c2c(N)sc3c2ccc(=O)n3-c2ccccc2)n1	< 2
CC(=O)Nc1sc2c(ccc(=O)n2-c2ccccc2)c1C(=O)c1ccccc1	< 2
Nc1sc2c(ccc(=O)n2-c2ccccc2)c1C(=O)c1cccc(F)c1	< 2
Nc1sc2c(ccc(=O)n2-c2ccccc2)c1C(=O)c1cccc(Cl)c1	< 2
CCN1CC(Nc2sc3c(ccc(=O)n3-c3ccccc3)c2C(=O)c2ccc(F)c(C)c2)C1	< 2
O=C(c1ccccc1)c1c(NC(=O)C2CCNCC2)sc2c1ccc(=O)n2-c1ccccc1Cl	< 2

Compound	IC50 [µM]
CC(=O)Nc1sc2c(ccc(=O)n2-c2ccccc2)c1C(=O)c1cccc(OC(F)(F)F)c1	< 2
Cc1cccc(C(=O)c2c(NC(=O)N3CCC[C@@H]3CO)sc3c2ccc(=O)n3-c2ccccc2)c1	< 2
O=C(c1ccccc1)c1c(NC(=O)[C@H]2CCCN2)sc2c1ccc(=O)n2-c1ccccc1	< 2
CC(C)(O)CNC(=O)Nc1sc2c(ccc(=O)n2-c2ccccc2Cl)c1C(=O)c1ccccc1	< 2
Cc1ccc(-n2c(=O)ccc3c(C(=O)c4ccc(F)c(C)c4)c(NC4CNC4)sc32)cc1	< 2
Cc1ccccc1C(=O)c1c(N)sc2c1ccc(=O)n2-c1ccccc1	< 2
Cc1cc(C(=O)c2c(N[C@H]3CCNC3)sc3c2ccc(=O)n3-c2ccccc2)ccc1F	< 2
O=C(c1ccccc1)c1c(C(=O)N2CCCC2)sc2c1ccc(=O)n2-c1ccccc1	< 2
COc1ccc(C(=O)c2c(N)sc3c2ccc(=O)n3-c2ccccc2)cc1	< 2
O=C(c1ccccc1)c1c(N[C@H]2CCCNC2)sc2c1ccc(=O)n2-c1ccccc1	< 2
O=C(c1ccccc1)c1c(NC(=O)N2CC[C@@H](O)C2)sc2c1ccc(=O)n2-c1ccccc1	< 2
CC(=O)Nc1sc2c(ccc(=O)n2-c2ccccc2)c1C(=O)c1cccc(Br)c1	< 2
NC1CN(c2sc3c(ccc(=O)n3-c3ccccc3)c2C(=O)c2ccccc2)C1	< 2
CCOc1ccc(C(=O)c2c(N)sc3c2ccc(=O)n3-c2ccccc2)cc1C	< 2
O=C(c1ccccc1)c1c(NC(=O)C2CCNCC2)sc2c1ccc(=O)n2CC1CC1	< 2
CC(=O)Nc1sc2c(ccc(=O)n2-c2ccccc2)c1C(=O)c1ccc(F)cc1	< 2
O=C(c1ccccc1)c1c(NC(=O)[C@@H]2CCCN2)sc2c1ccc(=O)n2-c1ccccc1	< 2
NC(=O)CCNc1sc2c(ccc(=O)n2-c2ccccc2)c1C(=O)c1ccccc1	< 2
COc1cccc(C(=O)c2c(NC(C)=O)sc3c2ccc(=O)n3-c2ccccc2)c1	< 2
Cc1cc(C(=O)c2c(NC3CNC3)sc3c2ccc(=O)n3-c2c(F)cccc2F)ccc1F	< 2
Nc1sc2c(ccc(=O)n2-c2ccccc2)c1C(=O)c1cccs1	< 2

Compound	IC50 [µM]
NC(=O)c1sc2c(ccc(=O)n2-c2ccccc2)c1C(=O)c1cccc(Cl)c1	< 2
Nc1sc2c(ccc(=O)n2-c2ccccc2)c1C(=O)c1ccccc1C(F)(F)F	< 2
O=C(O)c1sc2c(ccc(=O)n2-c2ccccc2)c1C(=O)c1ccccc1	< 2
CC(=O)Nc1sc2c(ccc(=O)n2-c2ccccc2)c1C(=O)c1cccc(C)n1	< 2
CN(C)CC(C)(C)CNc1sc2c(ccc(=O)n2-c2ccccc2)c1C(=O)c1ccccc1	< 2
CNC(=O)c1sc2c(ccc(=O)n2-c2ccccc2)c1C(=O)c1ccccc1	< 2
Cc1cc(C(=O)c2c(NC3CCNCC3)sc3c2ccc(=O)n3-c2ccccc2)ccc1F	< 2
CN1CC(Nc2sc3c(ccc(=O)n3-c3ccccc3)c2C(=O)c2ccccc2)C1	< 2
Nc1sc2c(ccc(=O)n2-c2ccccc2)c1C(=O)c1ccccn1	< 2
CN1CC[C@H](NC(=O)Nc2sc3c(ccc(=O)n3-c3ccccc3)c2C(=O)c2ccccc2)C1	< 2
NC(=O)c1sc2c(ccc(=O)n2-c2ccccc2)c1C(=O)c1ccccc1	< 2
O=C(Nc1sc2c(ccc(=O)n2-c2ccccc2)c1C(=O)c1ccccc1)N[C@H]1CCNC1	< 2
Cc1ccc(C(=O)c2c(N)sc3c2ccc(=O)n3-c2ccccc2)cc1	< 2
Cc1cccc(C(=O)c2c(C#N)sc3c2ccc(=O)n3-c2ccccc2)c1	< 2
CNC(=O)CNc1sc2c(ccc(=O)n2-c2ccccc2)c1C(=O)c1ccccc1	< 2
Nc1sc2c(ccc(=O)n2-c2ccccc2)c1C(=O)c1ccccc1F	< 2
CC(=O)Nc1sc2c(ccc(=O)n2-c2ccccc2)c1C(=O)c1ccccc1Cl	< 2
CN1CCC(C(=O)Nc2sc3c(ccc(=O)n3-c3ccccc3Cl)c2C(=O)c2ccccc2)CC1	< 2
COc1cccc(C(=O)c2c(NC3CCN(C)CC3)sc3c2ccc(=O)n3-c2ccccc2)c1	< 2
C[C@@H](Nc1sc2c(ccc(=O)n2-c2ccccc2)c1C(=O)c1ccccc1)C(N)=O	< 2
Cc1cc(C(=O)c2c(NC3CNC3)sc3c2ccc(=O)n3-c2ccccc2)ccc1F	< 2

Next, values leading:

IC50 [µM]	Compound
< 2	Cc1cccc(C(=O)c2c(NC(=O)N(C)C)sc3c2ccc(=O)n3-c2ccccc2)c1
< 2	Nc1sc2c(ccc(=O)n2-c2ccccc2)c1C(=O)c1ccc(F)c(Cl)c1
< 2	CS(=O)(=O)Nc1sc2c(ccc(=O)n2-c2ccccc2)c1C(=O)c1ccccc1
< 2	CN(C)C(=O)Nc1sc2c(ccc(=O)n2-c2ccccc2)c1C(=O)c1ccccc1
< 2	CC(C)(CO)NC(=O)Nc1sc2c(ccc(=O)n2CC2CC2)c1C(=O)c1ccccc1
< 2	N#Cc1cccc(C(=O)c2c(N)sc3c2ccc(=O)n3-c2ccccc2)c1
< 2	CC(=O)Nc1sc2c(ccc(=O)n2-c2ccccc2)c1C(=O)c1cccc(C(F)(F)F)c1
< 2	CCOC(=O)c1sc2c(ccc(=O)n2-c2ccccc2)c1C(=O)c1cccc(Cl)c1
< 2	N[C@H]1CC[C@H](Nc2sc3c(ccc(=O)n3-c3ccccc3)c2C(=O)c2ccccc2)CC1
< 2	Nc1sc2c(ccc(=O)n2-c2ccccc2)c1C(=O)c1ccccc1OC(F)F
< 2	CCN1CCC(Nc2sc3c(ccc(=O)n3-c3ccccc3)c2C(=O)c2cccc(C)c2)CC1
< 2	O=C(c1ccccc1)c1c(NCCN2CCCCC2)sc2c1ccc(=O)n2-c1ccccc1
< 2	Cc1cccc(C(=O)c2c(C(N)=O)sc3c2ccc(=O)n3-c2ccccc2)c1
< 2	Nc1sc2c(ccc(=O)n2-c2ccccc2)c1C(=O)c1cccc(C(F)(F)F)c1
< 2	CC(C)(O)CNC(=O)Nc1sc2c(ccc(=O)n2CC2CC2)c1C(=O)c1ccccc1
< 2	N#Cc1ccc(C(=O)c2c(N)sc3c2ccc(=O)n3-c2ccccc2)cc1
< 2	Cc1ccc(-n2c(=O)ccc3c(C(=O)c4ccc(F)c(C)c4)c(NC4CN(C)C4)sc32)cc1
< 2	Cc1cc(C(=O)c2c(NC(=O)N[C@@H]3CCN(C)C3)sc3c2ccc(=O)n3-c2ccccc2)ccc1F

IC50 [µM]	Compound
< 2	CC(C)N1CC(Nc2sc3c(ccc(=O)n3-c3ccccc3)c2C(=O)c2ccccc2)C1
< 2	O=C(NCCO)Nc1sc2c(ccc(=O)n2-c2ccccc2)c1C(=O)c1ccccc1
< 2	CCOC(=O)c1sc2c(ccc(=O)n2-c2ccccc2)c1C(=O)c1ccc(F)c(C)c1
< 2	Cc1cc(C(=O)c2c(NC3CNC3)sc3c2ccc(=O)n3CC2CC2)ccc1F
< 2	CC(=O)Nc1sc2c(ccc(=O)n2-c2ccccc2Cl)c1C(=O)c1ccccc1
< 2	CCOC(=O)c1sc2c(ccc(=O)n2-c2ccccc2)c1C(=O)c1cccc(C)c1
< 2	O=C(c1ccccc1)c1c(N[C@H]2CCNC2)sc2c1ccc(=O)n2-c1ccccc1
< 2	C=CCNC(=O)Nc1sc2c(ccc(=O)n2-c2ccccc2)c1C(=O)c1cccc(C)c1
< 2	Cc1cccc(C(=O)c2c(NC3CCNCC3)sc3c2ccc(=O)n3-c2ccccc2)c1
< 2	Nc1sc2c(ccc(=O)n2-c2ccccc2F)c1C(=O)c1ccccc1
< 2	N[C@@H]1CCN(C(=O)Nc2sc3c(ccc(=O)n3-c3ccccc3)c2C(=O)c2ccccc2)C1
< 2	Cc1cc(C(=O)c2c(NC(=O)C3CCN(C)CC3)sc3c2ccc(=O)n3-c2c(F)cccc2F)ccc1F
< 2	CN1CCC(Nc2sc3c(ccc(=O)n3-c3ccccc3)c2C(=O)c2ccc(F)c(Cl)c2)CC1
< 2	CC(=O)Nc1sc2c(ccc(=O)n2-c2ccccc2Cl)c1C(=O)c1ccc(F)c(C)c1
< 2	Nc1sc2c(ccc(=O)n2-c2ccccc2)c1C(=O)c1ccc(OC(F)F)cc1
< 2	Nc1sc2c(ccc(=O)n2-c2ccccc2)c1C(=O)c1ccc(Cl)cc1
< 2	Cc1cccc(C(=O)c2c(NC(=O)N3CCN(C)CC3)sc3c2ccc(=O)n3-c2ccccc2)c1
< 2	CC(=O)Nc1sc2c(ccc(=O)n2-c2ccccc2Cl)c1C(=O)c1cccc(C)c1
